Test results taken from patent US12077503B2, “Substituted cyclic amides and their use as herbicides” (FMC CORPORATION, priority 2015, dated 2024).

How the values were obtained:
Assay type in all cases: in vivo
[1] = test system: ragweed (common ragweed, Ambrosia elatior); experiment: Test A preemergence; conditions: Ambrosia artemisiifolia, pre-emergence, 240 h; for pest or weed control at 500 g/ha: 500 g ai/ha, preemergence, 0 to 100 scale where 0 is no effect and 100 is complete control, read-out: Ragweed plant response rating; for pest or weed control at 125 g/ha: Preemergence, 125 g ai/ha, 0 to 100 scale (0 no effect, 100 complete control), read-out: Plant response rating, Ragweed
In short: (§1)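 In a loam soil and sand blend, planted seeds got a preemergence directed soil spray, and young plants at the one- to two-leaf stage, 2–10 cm high, got a postemergence application; ~10 d greenhouse hold; injury rated visually, 0 = none, 100 = complete control.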

[2] = test system: pigweed (Amaranthus retroflexus); experiment: Test A preemergence; conditions: Amaranthus retroflexus, pre-emergence, 240 h; for pest or weed control at 500 g/ha: 500 g ai/ha, preemergence, 0 to 100 scale where 0 is no effect and 100 is complete control, read-out: Pigweed plant response rating; for pest or weed control at 125 g/ha: Preemergence, 125 g ai/ha, 0 to 100 scale (0 no effect, 100 complete control), read-out: Plant response rating, Pigweed
[3] = test system: ryegrass, Italian (Italian ryegrass, Lolium multiflorum); experiment: Test A preemergence; conditions: Lolium multiflorum, pre-emergence, 240 h, Preemergence, 125 g ai/ha; 0 to 100 scale (0 no effect, 100 complete control); read-out: Plant response rating, Ryegrass, Italian
In short: as §1

[4] = test system: Kochia (Kochia scoparia); experiment: Test A preemergence; conditions: Bassia scoparia, pre-emergence, 240 h; for pest or weed control at 500 g/ha: 500 g ai/ha, preemergence, 0 to 100 scale where 0 is no effect and 100 is complete control, read-out: Kochia plant response rating; for pest or weed control at 125 g/ha: Preemergence, 125 g ai/ha, 0 to 100 scale (0 no effect, 100 complete control), read-out: Plant response rating, Kochia
In short: as §1

[5] = test system: barnyardgrass (Echinochloa crus-galli); experiment: Test A preemergence; conditions: Echinochloa crus-galli, pre-emergence, 240 h; for pest or weed control at 500 g/ha: 500 g ai/ha, preemergence, 0 to 100 scale where 0 is no effect and 100 is complete control, read-out: Barnyardgrass plant response rating; for pest or weed control at 125 g/ha: Preemergence, 125 g ai/ha, 0 to 100 scale (0 no effect, 100 complete control), read-out: Plant response rating, Barnyardgrass
In short: as §1

[6] = test system: wheat (Triticum aestivum); experiment: Test A postemergence; conditions: Triticum aestivum, post-emergence, 240 h, Postemergence; for plant injury at 125 g/ha: 125 g ai/ha, visual rating about 10 d after treatment, read-out: Wheat plant response rating (0 to 100 scale); for plant injury at 500 g/ha: 500 g ai/ha, visual injury, 0 to 100 scale (0 no effect, 100 complete control), approx. 10 d, read-out: Plant response rating, Wheat
In short: as §1

[7] = test system: ragweed (common ragweed, Ambrosia elatior); experiment: Test A postemergence; conditions: Ambrosia artemisiifolia, post-emergence, 240 h, Postemergence; for pest or weed control at 125 g/ha: 125 g ai/ha, visual rating about 10 d after treatment, read-out: Ragweed plant response rating (0 to 100 scale); for pest or weed control at 500 g/ha: 500 g ai/ha, visual injury, 0 to 100 scale (0 no effect, 100 complete control), approx. 10 d, read-out: Plant response rating, Ragweed
In short: as §1

[8] = test system: blackgrass (Alopecurus myosuroides); experiment: Test A postemergence; conditions: Alopecurus myosuroides, post-emergence, 240 h, Postemergence; for pest or weed control at 125 g/ha: 125 g ai/ha, visual rating about 10 d after treatment, read-out: Blackgrass plant response rating (0 to 100 scale); for pest or weed control at 500 g/ha: 500 g ai/ha, visual injury, 0 to 100 scale (0 no effect, 100 complete control), approx. 10 d, read-out: Plant response rating, Blackgrass
In short: as §1

[9] = test system: pigweed (Amaranthus retroflexus); experiment: Test A postemergence; conditions: Amaranthus retroflexus, post-emergence, 240 h, Postemergence; for pest or weed control at 125 g/ha: 125 g ai/ha, visual rating about 10 d after treatment, read-out: Pigweed plant response rating (0 to 100 scale); for pest or weed control at 500 g/ha: 500 g ai/ha, visual injury, 0 to 100 scale (0 no effect, 100 complete control), approx. 10 d, read-out: Plant response rating, Pigweed
In short: as §1

[10] = test system: ryegrass, Italian (Italian ryegrass, Lolium multiflorum); experiment: Test A postemergence; conditions: Lolium multiflorum, post-emergence, 240 h, Postemergence; for pest or weed control at 125 g/ha: 125 g ai/ha, visual rating about 10 d after treatment, read-out: Ryegrass, Italian plant response rating (0 to 100 scale); for pest or weed control at 500 g/ha: 500 g ai/ha, visual injury, 0 to 100 scale (0 no effect, 100 complete control), approx. 10 d, read-out: Plant response rating, Ryegrass, Italian
In short: as §1

[11] = test system: corn (Zea mays); experiment: Test A postemergence; conditions: Zea mays, post-emergence, 240 h, Postemergence; for plant injury at 125 g/ha: 125 g ai/ha, visual rating about 10 d after treatment, read-out: Corn plant response rating (0 to 100 scale); for Corn plant response rating (crop injury, 0 = no effect, 100 = complete kill) at 500 g/ha: 500 g ai/ha, visual injury, 0 to 100 scale (0 no effect, 100 complete control), approx. 10 d
In short: as §1

[12] = test system: Kochia (Kochia scoparia); experiment: Test A postemergence; conditions: Bassia scoparia, post-emergence, 240 h, Postemergence; for pest or weed control at 125 g/ha: 125 g ai/ha, visual rating about 10 d after treatment, read-out: Kochia plant response rating (0 to 100 scale); for pest or weed control at 500 g/ha: 500 g ai/ha, visual injury, 0 to 100 scale (0 no effect, 100 complete control), approx. 10 d, read-out: Plant response rating, Kochia
In short: as §1

[13] = test system: giant foxtail (Setaria faberii); experiment: Test A postemergence; conditions: Setaria faberi, post-emergence, 240 h, Postemergence; for pest or weed control at 125 g/ha: 125 g ai/ha, visual rating about 10 d after treatment, read-out: Foxtail, Giant plant response rating (0 to 100 scale); for pest or weed control at 500 g/ha: 500 g ai/ha, visual injury, 0 to 100 scale (0 no effect, 100 complete control), approx. 10 d, read-out: Plant response rating, Foxtail, Giant
In short: as §1

[14] = test system: barnyardgrass (Echinochloa crus-galli); experiment: Test A postemergence; conditions: Echinochloa crus-galli, post-emergence, 240 h, Postemergence; for pest or weed control at 125 g/ha: 125 g ai/ha, visual rating about 10 d after treatment, read-out: Barnyardgrass plant response rating (0 to 100 scale, 0 no effect, 100 complete control); for pest or weed control at 500 g/ha: 500 g ai/ha, visual injury, 0 to 100 scale (0 no effect, 100 complete control), approx. 10 d, read-out: Plant response rating, Barnyardgrass
In short: as §1

[15] = test system: Galium (catchweed bedstraw, Galium aparine); experiment: Test A postemergence; conditions: Galium, post-emergence, 240 h, Postemergence; for pest or weed control at 125 g/ha: 125 g ai/ha, visual rating about 10 d after treatment, read-out: Galium plant response rating (0 to 100 scale); for pest or weed control at 500 g/ha: 500 g ai/ha, visual injury, 0 to 100 scale (0 no effect, 100 complete control), approx. 10 d, read-out: Plant response rating, Galium
In short: as §1

Structure (SMILES)	pest or weed control at 500 g/ha [1]	pest or weed control at 125 g/ha [1]	pest or weed control at 500 g/ha [2]	pest or weed control at 125 g/ha [2]	pest or weed control at 125 g/ha [3]	pest or weed control at 500 g/ha [4]	pest or weed control at 125 g/ha [4]	pest or weed control at 500 g/ha [5]	pest or weed control at 125 g/ha [5]	plant injury at 125 g/ha [6]	plant injury at 500 g/ha [6]	pest or weed control at 125 g/ha [7]	pest or weed control at 500 g/ha [7]	pest or weed control at 125 g/ha [8]	pest or weed control at 500 g/ha [8]	pest or weed control at 125 g/ha [9]	pest or weed control at 500 g/ha [9]	pest or weed control at 125 g/ha [10]	pest or weed control at 500 g/ha [10]	plant injury at 125 g/ha [11]	further results
CN1C[C@H](c2cccc(C(C)(F)F)c2)[C@@H](C(=O)Nc2ccccc2S(C)(=O)=O)C1=O [Compound 1318]	90%	0%	80%	70%	40%	80%	70%	90%	90%	50%	80%	10%	60%	70%	70%	30%	40%	20%	40%	60%	Corn plant response rating (crop injury, 0 = no effect, 100 = complete kill) at 500 g/ha [11]: 80%; pest or weed control at 125 g/ha [12]: 0%; pest or weed control at 500 g/ha [12]: 40%; pest or weed control at 125 g/ha [13]: 90%; pest or weed control at 500 g/ha [13]: 90%; pest or weed control at 125 g/ha [14]: 80%; pest or weed control at 500 g/ha [14]: 90%; pest or weed control at 125 g/ha [15]: 60%; pest or weed control at 500 g/ha [15]: 60%
CS(=O)(=O)c1ccccc1NC(=O)[C@H]1C(=O)NC[C@@H]1c1ccc2c(c1)CCO2 [Compound 1320]	0%	0%	0%	0%	0%	60%	0%	60%	0%	0%	0%	0%	0%	0%	0%	0%	0%	0%	0%	0%	Corn plant response rating (crop injury, 0 = no effect, 100 = complete kill) at 500 g/ha [11]: 0%; pest or weed control at 125 g/ha [12]: 0%; pest or weed control at 500 g/ha [12]: 0%; pest or weed control at 125 g/ha [13]: 0%; pest or weed control at 500 g/ha [13]: 20%; pest or weed control at 125 g/ha [14]: 0%; pest or weed control at 500 g/ha [14]: 50%; pest or weed control at 125 g/ha [15]: 30%; pest or weed control at 500 g/ha [15]: 40%
